Laboratory results from patent US8691861B2, “Prodrugs of inhibitors of plasma kallikrein” (ActiveSite Pharmaceuticals, Inc., priority 2011, dated 2014).
Non-standard residues stand in square brackets, D forms with d. *: point of attachment. CH2Cl = ClC*

Legend:
[1] = Conversion of prodrug in vivo: plasma levels of the active plasma kallikrein inhibitor after oral dosing of the prodrug; set-up: species or system Sprague-Dawley rats; conditions: rats, 25 mg/kg oral in PEG400
Description: Young male Sprague-Dawley rats were orally dosed at 25 mg/kg with the prodrug 1-(4-fluorophenyl)-N-[[4-(N′-hydroxycarbamimidoyl)phenyl]methyl]-2,5-dimethyl-pyrrole-3-carboxamide dissolved in PEG400. Blood was removed at various time intervals via an arterial catheter into a citrated collection tube, and plasma generated by centrifugation. The concentration of the active plasma kallikrein inhibitor N-[(4-carbamimidoylphenyl)methyl]-1-(4-fluorophenyl)-2,5-dimethyl-pyrrole-3-carboxamide in the plasma samples were determined using LC/MS/MS.

[2] = model of hemorrhagic stroke; cited from earlier work
[3] = rat model of ischemic stroke; cited from earlier work
[4] = diabetic animals; cited from earlier work
[5] = angiotensin-II-induced; cited from earlier work
[6] = rat models of arthritis; cited from earlier work
[7] = cited from earlier work
[8] = LPS or bacterial induced sepsis in animals; cited from earlier work
[9] = mouse model of middle cerebral artery occlusion; cited from earlier work
[10] = cited from earlier work; remark: listed apart in the source

Cc1cc(C(=O)NCc2ccc(/C(N)=N/O)cc2)c(C)n1-c1ccc(F)cc1 [1-(4-fluorophenyl)-N-[[4-(N′-hydroxycarbamimidoyl)phenyl]methyl]-2,5-dimethyl-pyrrole-3-carboxamide]
absorption from the gastrointestinal tract following oral dosing [1]: absorbed from the gastrointestinal tract | conversion in vivo into the active compound [1]: effectively converted in vivo

N=C(N)c1ccc(CNC(=O)c2cnn(Cc3ccccc3)c2)cc1 [ASP-440]
expansion of intracerebral hemorrhage [2]: reduce | cerebrovascular edema [3]: reduce | infarction volume [3]: reduce | plasma leakage into the retina [4]: inhibits | elevated systolic blood pressure [5]: reduce

Cl.NCC1CCC(C(=O)N[C@@H](Cc2ccccc2)C(=O)Nc2ccc(CC(=O)O)cc2)CC1 (stereo partly shown) [PKSI-527]
joint swelling [6]: reduce

NC(N)=NCCC[C@@H](N)C(=O)N[C@@H](CCCN=C(N)N)C(=O)N1CCC[C@H]1C(=O)N1C[C@H](O)C[C@H]1C(=O)NCC(=O)N[C@@H](Cc1cccs1)C(=O)N[C@@H](CO)C(=O)N1Cc2ccccc2C[C@@H]1C(=O)N1[C@H](C(=O)N[C@@H](CCCN=C(N)N)C(=O)O)C[C@@H]2CCCC[C@@H]21 [icatibant]
effectiveness in treating HAE [7]: effective

H-[dP]-Phe-Arg-CH2Cl
lesions [8]: reduce

B1: C1-INH: the major endogenous inhibitor of PK (protein, UniProt P05155 23-500, looked up)
Plasma protease C1 inhibitor: NPNATSSSSQDPESLQDRGEGKVATTVISKMLFVEPILEVSSLPTTNSTTNSATKITANTTDEPTTQPTTEPTTQPTIQPTQPTTQLPTDSPTQPTTGSFCPGPVTLCSDLESHSTEAVLGDALVDFSLKLYHAFSAMKKVETNMAFSPFSIASLLTQVLLGAGENTKTNLESILSYPKDFTCVHQALKGFTTKGVTSVSQIFHSPDLAIRDTFVNASRTLYSSSPRVLSNNSDANLELINTWVAKNTNNKISRLLDSLPSDTRLVLLNAIYLSAKWKTTFDPKKTRMEPFHFKNSVIKVPMMNSKKYPVAHFIDQTLKAKVGQLQLSHNLSLVILVPQNLKHRLEDMEQALSPSVFKAIMEKLEMSKFQPTLLTLPRIKVTTSQDMLSIMEKLEFFDFSYDLNLCGLTEDPDLQVSAMQHQTVLELTETGVEAAAASAISVARTLLVFEVQQPFLFVLWDQQHKFPVFMGRVYDPRA
lesions [8]: reduce | infarct size [9]: reduced | clinical outcome in sepsis patients [10]: Clinical improvement
